{
  "source": "paper PMC4412765",
  "about": "(Chemical biology & drug design, 2014)",
  "key": {"M. smegmatis": {"system": "M. smegmatis", "assay": "Activity against the M. tuberculosis model M. smegmatis", "type": "cell-based"}, "cis-DPPS (Rv2361c)": {"biological_target": "cis-DPPS (Rv2361c) (Mycobacterium tuberculosis, UniProt P9WFF7)", "sequence (P9WFF7 whole entry)": "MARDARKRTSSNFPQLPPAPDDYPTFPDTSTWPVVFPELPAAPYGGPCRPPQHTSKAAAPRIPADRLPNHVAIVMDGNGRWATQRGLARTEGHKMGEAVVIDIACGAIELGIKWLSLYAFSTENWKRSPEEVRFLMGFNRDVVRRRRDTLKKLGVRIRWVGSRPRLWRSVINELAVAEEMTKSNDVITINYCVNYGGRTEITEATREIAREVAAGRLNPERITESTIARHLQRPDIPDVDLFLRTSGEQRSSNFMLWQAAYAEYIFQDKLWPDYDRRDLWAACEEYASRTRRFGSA"}, "UPPS": {"system": "UPPS", "conditions": "cited from earlier work"}, "Rv3378c": {"biological_target": "Rv3378c (Mycobacterium tuberculosis, UniProt P9WJ61)", "sequence (P9WJ61 whole entry)": "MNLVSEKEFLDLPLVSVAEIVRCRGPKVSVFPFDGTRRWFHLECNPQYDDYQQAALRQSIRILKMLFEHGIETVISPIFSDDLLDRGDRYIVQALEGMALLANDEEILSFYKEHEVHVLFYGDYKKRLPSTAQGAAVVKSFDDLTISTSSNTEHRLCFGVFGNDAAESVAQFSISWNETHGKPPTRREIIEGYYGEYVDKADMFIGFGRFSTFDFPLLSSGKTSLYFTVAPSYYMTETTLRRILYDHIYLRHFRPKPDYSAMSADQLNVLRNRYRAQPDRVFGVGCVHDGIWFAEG"}, "S. aureus": {"system": "S. aureus", "conditions": "cited from earlier work"}},
  "note": "Read-outs that look alike come from different tables or passages of the source.",
  "data": [
    {"compound": "O=P(O)(O)C(O)(Cc1cccc(-c2cccc3c2oc2ccccc23)c1)P(=O)(O)O", "note": "[BPH-629]", "values": [
      {"measurement": "activity against M. smegmatis", "setting": "M. smegmatis", "value": "inactive"},
      {"measurement": "IC50", "setting": "cis-DPPS (Rv2361c); read-out: IC50 against DPPS, cis-FPP as substrate", "value": 0.61, "unit": "µM"}
    ]},
    {"compound": "Cl.Cl.O=C(Nc1cccc(C2=NCCN2)c1)c1ccc(-c2ccc(C(=O)Nc3cccc(C4=NCCN4)c3)cc2)cc1", "note": "[BPH-1358]", "values": [
      {"measurement": "UPPS inhibition", "setting": "UPPS", "value": "potent UPPS inhibitor"},
      {"measurement": "activity against Rv3378c", "setting": "Rv3378c", "value": "inactive"}
    ]},
    {"compound": "C(=C\\c1cc2ccc(C3=NCCN3)cc2[nH]1)/c1cc2ccc(C3=NCCN3)cc2[nH]1", "note": "[BPH-1417]", "values": [
      {"measurement": "in vivo activity against S. aureus", "setting": "S. aureus", "value": "potent"},
      {"measurement": "IC50", "setting": "cis-DPPS (Rv2361c); read-out: IC50 against DPPS, depending on substrate", "value": "0.5 to 20", "unit": "µM"},
      {"measurement": "IC50", "setting": "cis-DPPS (Rv2361c); read-out: IC50 against cis-DPPS, substrate not stated", "value": 1.3, "unit": "µM"}
    ]}
  ]
}
